{"source": "paper PMC3074590", "about": "(Science (New York, N.Y.), 2010)", "origin": "cited, not measured here", "system": "CXCR4", "details": "characterized previously; no reference printed at this statement"}
{"compound": "CC1(C)CN2C(CSC(=NC3CCCCC3)NC3CCCCC3)=CSC2=N1", "note": "[IT1t]", "values": [{"measurement": "mode of inhibition of CXCL12", "value": "competitive inhibitors of CXCL12"}]}
